Results reported in PMC11921344, “Antimicrobial peptide DiPGLa-H exhibits the most outstanding anti-infective activity among the PGLa variants based on a systematic comparison” (Applied and Environmental Microbiology, 2025).
Like-named read-outs stand apart in the source and are kept apart here. Where no end group is shown, it is not given here.

How the values were obtained:
E. coli K88 infection = experiment: Mouse abdominal infection model; assay type: in vivo, C57BL/6 mice; details: for number of mice that survived: K88+DiPGLa-H
Protocol: (§1) Six-to-eight-week-old C57BL/6 male mice were selected for the experiment and housed in cages under specific pathogen-free conditions with water and laboratory mouse chow. Each strain was divided into three groups, and each group and the second group were required to be injected intraperitoneally with a lethal amount of bacterial fluid with a working fluid concentration of 64 µg/mL of DiPGLa-H, and the third group was injected with PBS. […] Then homogenized and serially diluted with PBS to 10^7 times. 100 µL of the gradient dilution was applied to the TSA plate, which was subsequently incubated at 37°C overnight and counted the next day for survival analysis using GraphPad Prism software. The protocol and use of animals were approved by the Institutional Animal Care and Use Committee of the Northwest A&F University.

S. aureus Mu50 infection = experiment: Mouse abdominal infection model; assay type: in vivo, C57BL/6 mice; details: for number of mice that survived: Mu50+DiPGLa-H
Protocol: as §1

S. aureus Mu50 [1] = assay type: cell-based, Staphylococcus aureus MRSA
Protocol: (§2) The antibacterial activity was evaluated using a standard MIC and MBC assay according to the National Committee for Clinical Laboratory Standards (NCCLS). MIC, MBC assay, and time-kill curves for the optimal peptide are provided in the Supplementary Materials.
(§3) Antimicrobial Activity Assays. The antibacterial activity of the peptides was determined using a method designed from the National Committee for Clinical Laboratory Standards (NCCLS) in the United States. All the strains used in the experiment are preserved in the laboratory. Briefly, log phase bacterial cells were diluted in MHB to a final concentration of 0.5-1x10^5 CFU/mL. Subsequently, 50μL of different concentrations of polypeptides were incubated with 50 μL of bacterial solution in sterile 96-well plates. In the minimum inhibitory concentration (MIC) assay, the plate was incubated at 37°C for 24 h, and the minimum inhibitory concentration (MIC) was determined by the absorbance at 492 nm of the microplate reader, and the minimum inhibitory concentration (MIC) inhibited 95% of bacteria grow. Determination of minimum bactericidal concentration: the plate was incubated at 37°C for 4 hours, 50 μL of the mixture was taken out of each well, diluted with an appropriate amount of PBS, smeared on the agar plate, and cultured overnight. Colonies were counted and the initial CFU/well was retrospectively calculated the following day. The lowest concentration of peptide that kills 99.9% of bacterial cells is the minimum bactericidal concentration (µM), Each test was replicated at least 3 times.

S. aureus Mu50 [2] = experiment: ROS generation (DCFH-DA); assay type: cell-based, Staphylococcus aureus MRSA; details: 8 µM DiPGLa-H, 1 h 37°C, DCFH-DA 10 µM
Protocol: 2′,7′-Dichlorofluorescin diacetate (DCFH-DA) was used to determine the intracellular production of ROS as previously described. S. aureus Mu50 and E. coli K88 cells were diluted until OD600 = 0.4 and incubated in different concentrations of peptide at 37°C for 1 h. Next, the mixed solution was incubated with 10 µM DCFH-DA at 37°C for 1 h. The fluorescence (excitation wavelength = 488 nm, emission wavelength = 525 nm) was monitored with an Infinite 200 pro fluorescence spectrophotometer (Tecan, China). Each test was measured in triplicate and tested twice.

Gram-negative bacteria = experiment: Geometric mean MIC and therapeutic index, Gram-negative; assay type: cell-based; details: geometric mean of the peptide MICs against Gram-negative strains
Protocol: as §2, §3

S. aureus Mu50 biofilm = experiment: Anti-biofilm assay (crystal violet); assay type: cell-based, Staphylococcus aureus MRSA
Protocol: The anti-biofilm activity of DiPGLa-H was evaluated using a crystal violet staining method. Briefly, 100 µL of bacterial suspension at 1 × 10^6 CFU/mL was incubated with DiPGLa-H (0–64 µM) for 48 h. The biofilm formed was stained with 1% crystal violet, and the absorbance was measured at 595 nm. The biofilm formation and mature biofilm removal assays were conducted. For biofilm formation, a bacterial suspension was incubated with DiPGLa-H, and biofilm content was quantified. To assess mature biofilm removal, pre-formed biofilms were treated with DiPGLa-H for 24 h, followed by quantification. Detailed Protocol in Supplementary Materials.
To test the ability of DiPGLa-H to […] on the test bacteria, a single colony was inoculated in MHB medium and incubated overnight at 37 °C and 180 r/min, and 1% of the bacterial suspension was taken and continued to be amplified and incubated for 2 h. […] The biofilm content was analyzed by measuring the absorbance value at 595 nm, and anhydrous ethanol was used as a blank control. […]

[3] = heart, liver, spleen, 1 day after infection, 5 mice per group

In the case of “KIAKVALKALKIAKVALKAL-NH2 (C-terminus assumed) [DiPGLa-H]”, the fold higher TIall vs kiadin-2 is reported as 2.5 fold, the “number of mice that survived” value (E. coli K88 infection; day 1, of 16 mice) is reported as 13 and the “number of mice that survived” value (E. coli K88 infection; day 2, of 16 mice) is reported as 12. The “number of mice that survived” value (E. coli K88 infection; day 3, of 16 mice) was 10, the “number of mice that survived” value (E. coli K88 infection; day 4, of 16 mice) was 9 and the “number of mice that survived” value (E. coli K88 infection; day 5, of 16 mice) was 9. The “number of mice that survived” value (E. coli K88 infection; day 6, of 16 mice) was 9, the “number of mice that survived” value (E. coli K88 infection; day 7, of 16 mice) was 9 and the “number of mice that survived” value (E. coli K88 infection; day 8, of 16 mice) was 9. The “reduction of bacterial loads in the organs” value (E. coli K88 infection; [3]) was 1,000 fold, the “increase of survival rate of mice” value (S. aureus Mu50 infection; C57BL/6 male mice, intraperitoneal lethal Mu50, DiPGLa-H working concentration 64 µg/mL, 16 mice per group) was 31% and the “number of mice that survived” value (S. aureus Mu50 infection; day 1, of 16 mice) was 12. The “number of mice that survived” value (S. aureus Mu50 infection; day 2, of 16 mice) was 11, the “number of mice that survived” value (S. aureus Mu50 infection; day 3, of 16 mice) was 10 and the “number of mice that survived” value (S. aureus Mu50 infection; day 4, of 16 mice) was 8. For the same substance, the “number of mice that survived” value (S. aureus Mu50 infection; day 5, of 16 mice) was 6, the “number of mice that survived” value (S. aureus Mu50 infection; day 6, of 16 mice) was 6 and the “number of mice that survived” value (S. aureus Mu50 infection; day 7, of 16 mice) was 5. For the same substance, the “number of mice that survived” value (S. aureus Mu50 infection; day 8, of 16 mice) was 5, the “reduction of bacterial loads in the organs” value (S. aureus Mu50 infection; [3]) was 100 fold and the “MBC S. aureus Mu50” value (S. aureus Mu50 [1]; Mu50, 4 h) was 16 µM. The “MIC S. aureus Mu50” value (S. aureus Mu50 [1]; Mu50, 24 h) was 8 µM, the “MIC S. aureus Mu50” value (S. aureus Mu50 [1]; lowest concentration inhibiting 95% of growth, MHB, 0.5-1x10^5 CFU/mL, 37°C 24 h, absorbance 492 nm, three independent experiments) was 8 µM and the “elevation of ROS production vs untreated” value (S. aureus Mu50 [2]) was 4.6 fold. The “GMMIC Gram-negative” value (Gram-negative bacteria) was 2.82 µM, the “inhibition of biofilm formation” value (S. aureus Mu50 biofilm; 1×10^6 CFU/mL, DiPGLa-H 0-64 µM, 48 h, crystal violet, 595 nm) was “inhibition at higher concentrations” and the “concentration effectively eradicating biofilms” value (S. aureus Mu50 biofilm; pre-formed biofilm treated with DiPGLa-H 0-64 µM for 24 h) was “above 16 µM”.
